Laboratory results published in PMC10004634 (PLOS ONE, 2023).
Read-outs that look alike come from different tables or passages of the source.

What was measured:
Experiment in all cases: biochemical
Set-up in all cases: KINOMEscan scanMAX competition binding, DNA-tagged kinases, qPCR read-out, percent control at 300 nM
SRC = SRC (Homo sapiens, UniProt P12931)
TNNI3K = TNNI3K (Homo sapiens, UniProt Q59H18)
FLT3(D835H) = FLT3(D835H) (Homo sapiens, UniProt P36888, D835H)
FLT3(ITD) = FLT3(ITD) (Homo sapiens, UniProt P36888, ITD)
BMPR1B = BMPR1B (Homo sapiens, UniProt O00238)
[1] = target: T1, ABL1(Y253F)-phosphorylated (Homo sapiens, UniProt P00519, Y253F)
T1 construct: phosphorylated

CHEK1 = CHEK1 (Homo sapiens, UniProt O14757)
ROCK1 = ROCK1 (Homo sapiens, UniProt Q13464)
FAK = target: T2, FAK (Homo sapiens, UniProt Q05397)
T2 construct: gene PTK2

IGF1R = IGF1R (Homo sapiens, UniProt P08069)
ACVR1B = ACVR1B (Homo sapiens, UniProt P36896)
SGK3 = SGK3 (Homo sapiens, UniProt Q96BR1)
EPHA8 = EPHA8 (Homo sapiens, UniProt P29322)
MERTK = MERTK (Homo sapiens, UniProt Q12866)
[2] = target: T3, RSK2(Kin.Dom.1-N-terminal) (Homo sapiens, UniProt P51812)
T3 construct: gene RPS6KA3; Kin.Dom.1-N-terminal

PRKCI = PRKCI (Homo sapiens, UniProt P41743)
NEK1 = NEK1 (Homo sapiens, UniProt Q96PY6)
ERBB3 = ERBB3 (Homo sapiens, UniProt P21860)
BMPR2 = BMPR2 (Homo sapiens, UniProt Q13873)
CAMKK1 = CAMKK1 (Homo sapiens, UniProt Q8N5S9)
MAP4K5 = MAP4K5 (Homo sapiens, UniProt Q9Y4K4)
GSK3A = GSK3A (Homo sapiens, UniProt P49840)
PCTK2 = target: T4, PCTK2 (Homo sapiens, UniProt Q00537)
T4 construct: gene CDK17

[3] = read-out: Percent control / Tirabrutinib
[4] = read-out: Percent control / Zanubrutinib
[5] = read-out: Percent control / Acalabrutinib
[6] = read-out: Percent control / Ibrutinib

T4 sequence (Q00537 whole entry): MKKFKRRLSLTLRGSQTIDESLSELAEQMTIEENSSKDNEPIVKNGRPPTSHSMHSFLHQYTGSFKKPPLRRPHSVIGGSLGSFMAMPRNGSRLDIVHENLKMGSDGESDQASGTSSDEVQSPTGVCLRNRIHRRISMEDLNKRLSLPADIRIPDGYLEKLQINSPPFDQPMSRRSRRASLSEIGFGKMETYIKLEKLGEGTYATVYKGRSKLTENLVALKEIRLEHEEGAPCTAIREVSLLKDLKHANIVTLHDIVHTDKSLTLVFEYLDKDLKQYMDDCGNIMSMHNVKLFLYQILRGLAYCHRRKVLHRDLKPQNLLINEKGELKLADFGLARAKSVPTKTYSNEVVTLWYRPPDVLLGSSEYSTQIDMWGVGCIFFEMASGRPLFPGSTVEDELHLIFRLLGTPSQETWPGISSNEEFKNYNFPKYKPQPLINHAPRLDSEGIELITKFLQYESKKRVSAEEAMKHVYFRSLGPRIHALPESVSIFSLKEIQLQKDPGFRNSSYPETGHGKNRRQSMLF
Chain of ROCK1 (Q13464 whole entry): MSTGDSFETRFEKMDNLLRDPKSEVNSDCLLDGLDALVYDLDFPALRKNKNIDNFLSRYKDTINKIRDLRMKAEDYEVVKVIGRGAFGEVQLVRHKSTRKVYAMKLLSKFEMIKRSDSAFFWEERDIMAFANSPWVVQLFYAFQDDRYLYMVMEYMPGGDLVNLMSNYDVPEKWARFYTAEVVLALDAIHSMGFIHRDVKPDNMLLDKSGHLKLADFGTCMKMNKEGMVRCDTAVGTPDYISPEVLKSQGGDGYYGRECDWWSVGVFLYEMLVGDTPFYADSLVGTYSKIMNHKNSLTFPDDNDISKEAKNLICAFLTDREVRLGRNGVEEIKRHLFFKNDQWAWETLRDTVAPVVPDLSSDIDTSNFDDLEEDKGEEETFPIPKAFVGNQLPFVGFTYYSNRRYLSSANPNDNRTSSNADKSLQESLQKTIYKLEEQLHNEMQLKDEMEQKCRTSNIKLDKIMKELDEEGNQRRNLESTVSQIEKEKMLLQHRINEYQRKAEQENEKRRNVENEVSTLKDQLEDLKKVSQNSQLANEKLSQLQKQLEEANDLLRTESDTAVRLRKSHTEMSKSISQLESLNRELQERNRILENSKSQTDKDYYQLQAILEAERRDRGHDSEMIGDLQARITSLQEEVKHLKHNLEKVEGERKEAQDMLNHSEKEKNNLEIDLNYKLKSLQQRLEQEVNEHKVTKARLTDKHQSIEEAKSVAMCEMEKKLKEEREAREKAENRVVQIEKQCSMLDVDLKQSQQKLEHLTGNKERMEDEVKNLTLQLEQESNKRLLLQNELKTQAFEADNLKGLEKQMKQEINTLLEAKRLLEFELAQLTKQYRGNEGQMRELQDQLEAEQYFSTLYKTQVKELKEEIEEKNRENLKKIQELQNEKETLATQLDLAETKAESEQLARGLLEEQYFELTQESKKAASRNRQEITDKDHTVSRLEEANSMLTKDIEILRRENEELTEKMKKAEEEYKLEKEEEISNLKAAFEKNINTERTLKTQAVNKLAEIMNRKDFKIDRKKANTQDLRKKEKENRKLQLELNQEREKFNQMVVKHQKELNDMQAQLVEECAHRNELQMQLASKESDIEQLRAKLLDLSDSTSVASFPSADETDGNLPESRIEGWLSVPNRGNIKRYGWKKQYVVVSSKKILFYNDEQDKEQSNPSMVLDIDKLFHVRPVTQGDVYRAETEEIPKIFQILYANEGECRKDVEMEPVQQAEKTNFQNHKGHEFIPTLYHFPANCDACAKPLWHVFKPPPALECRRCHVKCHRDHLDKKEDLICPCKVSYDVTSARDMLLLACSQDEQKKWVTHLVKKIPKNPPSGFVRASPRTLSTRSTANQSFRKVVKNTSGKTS
Chain of IGF1R (P08069 whole entry): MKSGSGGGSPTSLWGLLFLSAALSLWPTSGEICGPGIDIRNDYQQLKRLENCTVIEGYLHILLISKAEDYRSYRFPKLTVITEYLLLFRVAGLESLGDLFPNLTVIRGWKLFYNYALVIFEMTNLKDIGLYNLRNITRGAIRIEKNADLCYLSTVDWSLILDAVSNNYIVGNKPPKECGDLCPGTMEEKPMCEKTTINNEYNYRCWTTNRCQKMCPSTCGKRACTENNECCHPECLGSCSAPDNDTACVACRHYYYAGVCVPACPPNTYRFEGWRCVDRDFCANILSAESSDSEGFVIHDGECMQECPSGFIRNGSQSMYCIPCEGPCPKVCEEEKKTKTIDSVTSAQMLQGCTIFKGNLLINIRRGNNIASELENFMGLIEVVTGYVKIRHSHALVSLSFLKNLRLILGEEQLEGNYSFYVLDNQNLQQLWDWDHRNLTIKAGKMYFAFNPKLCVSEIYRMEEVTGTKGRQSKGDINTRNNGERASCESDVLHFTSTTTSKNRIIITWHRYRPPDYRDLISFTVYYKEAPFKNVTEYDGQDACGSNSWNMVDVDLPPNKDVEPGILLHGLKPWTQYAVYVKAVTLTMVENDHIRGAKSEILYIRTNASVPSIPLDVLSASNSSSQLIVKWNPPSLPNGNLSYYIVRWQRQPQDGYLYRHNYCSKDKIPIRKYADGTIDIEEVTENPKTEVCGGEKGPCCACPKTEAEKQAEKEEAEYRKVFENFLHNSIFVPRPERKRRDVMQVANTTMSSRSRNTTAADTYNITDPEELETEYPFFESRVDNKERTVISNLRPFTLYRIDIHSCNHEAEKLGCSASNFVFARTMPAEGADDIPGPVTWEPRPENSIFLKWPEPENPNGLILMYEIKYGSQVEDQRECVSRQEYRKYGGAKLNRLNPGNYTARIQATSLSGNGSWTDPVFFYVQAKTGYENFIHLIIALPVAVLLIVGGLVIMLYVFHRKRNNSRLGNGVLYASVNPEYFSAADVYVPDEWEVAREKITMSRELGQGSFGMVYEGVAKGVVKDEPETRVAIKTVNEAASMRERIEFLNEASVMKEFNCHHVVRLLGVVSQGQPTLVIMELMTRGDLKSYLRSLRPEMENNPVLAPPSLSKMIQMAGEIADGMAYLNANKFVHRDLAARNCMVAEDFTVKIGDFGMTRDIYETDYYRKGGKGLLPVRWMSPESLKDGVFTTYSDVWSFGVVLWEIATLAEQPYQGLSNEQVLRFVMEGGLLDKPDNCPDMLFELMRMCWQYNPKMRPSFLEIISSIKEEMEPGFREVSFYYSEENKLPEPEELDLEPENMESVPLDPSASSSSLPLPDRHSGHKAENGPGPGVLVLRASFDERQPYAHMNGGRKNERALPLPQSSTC
Chain of CAMKK1 (Q8N5S9 whole entry): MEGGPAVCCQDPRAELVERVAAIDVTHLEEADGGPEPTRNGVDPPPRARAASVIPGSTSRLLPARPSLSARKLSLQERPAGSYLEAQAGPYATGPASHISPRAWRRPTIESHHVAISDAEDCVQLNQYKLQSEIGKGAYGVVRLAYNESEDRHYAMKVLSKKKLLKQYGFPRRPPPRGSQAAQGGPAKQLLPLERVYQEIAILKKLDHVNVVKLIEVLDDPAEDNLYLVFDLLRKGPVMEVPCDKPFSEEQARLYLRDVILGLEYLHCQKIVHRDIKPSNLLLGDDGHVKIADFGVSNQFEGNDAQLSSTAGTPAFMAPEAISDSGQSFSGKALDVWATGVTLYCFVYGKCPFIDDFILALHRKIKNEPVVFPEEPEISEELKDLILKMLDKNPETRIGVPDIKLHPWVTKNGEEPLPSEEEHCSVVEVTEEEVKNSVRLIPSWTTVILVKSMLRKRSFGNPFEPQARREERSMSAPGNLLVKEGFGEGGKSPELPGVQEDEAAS
Chain of MAP4K5 (Q9Y4K4 whole entry): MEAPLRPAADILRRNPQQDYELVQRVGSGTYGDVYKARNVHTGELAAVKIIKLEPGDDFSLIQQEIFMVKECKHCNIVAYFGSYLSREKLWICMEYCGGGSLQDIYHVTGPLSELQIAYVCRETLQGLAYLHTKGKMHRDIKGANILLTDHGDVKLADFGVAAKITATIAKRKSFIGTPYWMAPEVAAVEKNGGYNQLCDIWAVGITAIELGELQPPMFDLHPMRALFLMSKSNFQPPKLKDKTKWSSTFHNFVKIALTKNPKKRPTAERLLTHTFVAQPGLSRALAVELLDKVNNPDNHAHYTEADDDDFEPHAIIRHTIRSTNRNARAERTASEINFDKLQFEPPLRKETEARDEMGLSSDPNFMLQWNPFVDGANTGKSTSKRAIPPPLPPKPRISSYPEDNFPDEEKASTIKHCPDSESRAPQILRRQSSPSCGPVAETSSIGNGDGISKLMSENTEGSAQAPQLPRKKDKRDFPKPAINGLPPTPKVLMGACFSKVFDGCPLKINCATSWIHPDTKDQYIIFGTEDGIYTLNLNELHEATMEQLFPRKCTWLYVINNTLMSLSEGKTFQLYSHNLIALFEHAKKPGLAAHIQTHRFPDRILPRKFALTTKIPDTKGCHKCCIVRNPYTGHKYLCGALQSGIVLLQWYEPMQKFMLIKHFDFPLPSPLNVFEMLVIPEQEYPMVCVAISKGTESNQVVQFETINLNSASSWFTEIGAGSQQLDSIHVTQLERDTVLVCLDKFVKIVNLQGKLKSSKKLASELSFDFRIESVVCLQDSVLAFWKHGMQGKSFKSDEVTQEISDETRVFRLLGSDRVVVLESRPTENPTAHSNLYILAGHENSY
Chain of CHEK1 (O14757 whole entry): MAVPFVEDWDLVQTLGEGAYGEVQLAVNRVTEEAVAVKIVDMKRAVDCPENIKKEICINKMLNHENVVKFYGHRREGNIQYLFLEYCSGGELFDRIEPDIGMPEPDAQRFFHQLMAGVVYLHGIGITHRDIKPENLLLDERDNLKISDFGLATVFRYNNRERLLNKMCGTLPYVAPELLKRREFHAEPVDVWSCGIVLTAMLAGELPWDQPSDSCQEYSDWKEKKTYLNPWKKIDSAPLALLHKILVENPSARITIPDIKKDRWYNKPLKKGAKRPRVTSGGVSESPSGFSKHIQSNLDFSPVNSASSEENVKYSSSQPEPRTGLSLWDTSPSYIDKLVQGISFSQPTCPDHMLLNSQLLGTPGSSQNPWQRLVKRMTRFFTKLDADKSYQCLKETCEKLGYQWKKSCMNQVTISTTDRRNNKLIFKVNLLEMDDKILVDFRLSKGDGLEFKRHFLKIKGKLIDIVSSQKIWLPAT

Question: How did the remaining binding at 0.3 µM (SRC; [3]) turn out when CC#CC(=O)N1CC[C@@H](n2c(=O)n(-c3ccc(Oc4ccccc4)cc3)c3c(N)ncnc32)C1 [Tirabrutinib] was run?
Answer: 95%

Question: What about the remaining binding at 0.3 µM (TNNI3K; [3]) of the same molecule?
Answer: 91%

Question: And the remaining binding at 0.3 µM (FLT3(D835H); [3])?
Answer: 95%

Question: What about the remaining binding at 0.3 µM (FLT3(ITD); [3]) of the same molecule?
Answer: 82%

Question: And the remaining binding at 0.3 µM (BMPR1B; [3])?
Answer: 98%

Question: For C=CC(=O)N1CCC([C@@H]2CCNc3c(C(N)=O)c(-c4ccc(Oc5ccccc5)cc4)nn32)CC1 [Zanubrutinib], which remaining binding at 0.3 µM [1, 4] is on record?
Answer: 85%

Question: And the remaining binding at 0.3 µM (CHEK1; [4])?
Answer: 92%

Question: And the remaining binding at 0.3 µM (ROCK1; [4])?
Answer: 92%

Question: And the remaining binding at 0.3 µM (FAK; [4])?
Answer: 100%

Question: And the remaining binding at 0.3 µM (IGF1R; [4])?
Answer: 96%

Question: And the remaining binding at 0.3 µM (ACVR1B; [4])?
Answer: 92%

Question: And the remaining binding at 0.3 µM (SGK3; [4])?
Answer: 74%

Question: And the remaining binding at 0.3 µM (EPHA8; [4])?
Answer: 90%

Question: And the remaining binding at 0.3 µM (MERTK; [4])?
Answer: 91%

Question: And the remaining binding at 0.3 µM [2, 4]?
Answer: 82%

Question: And the remaining binding at 0.3 µM (PRKCI; [4])?
Answer: 68%

Question: And the remaining binding at 0.3 µM (NEK1; [4])?
Answer: 54%

Question: What about the remaining binding at 0.3 µM (ERBB3; [4]) of the same molecule?
Answer: 87%

Question: What about the remaining binding at 0.3 µM (BMPR2; [4]) of the same molecule?
Answer: 93%

Question: And the remaining binding at 0.3 µM (CAMKK1; [4])?
Answer: 87%

Question: What about the remaining binding at 0.3 µM (MAP4K5; [4]) of the same molecule?
Answer: 98%

Question: What about the remaining binding at 0.3 µM (GSK3A; [4]) of the same molecule?
Answer: 98%

Question: And the remaining binding at 0.3 µM (BMPR1B; [4])?
Answer: 98%

Question: And the remaining binding at 0.3 µM (PCTK2; [4])?
Answer: 82%

Question: What does the source list for CC#CC(=O)N1CCC[C@H]1c1nc(-c2ccc(C(=O)Nc3ccccn3)cc2)c2c(N)nccn12 [Acalabrutinib]?
Answer: remaining binding at 0.3 µM [1, 5]: 90%; remaining binding at 0.3 µM (CHEK1; [5]): 88%; remaining binding at 0.3 µM (ROCK1; [5]): 93%; remaining binding at 0.3 µM (SRC; [5]): 99%; remaining binding at 0.3 µM (FAK; [5]): 79%; remaining binding at 0.3 µM (TNNI3K; [5]): 66%; remaining binding at 0.3 µM (IGF1R; [5]): 91%; remaining binding at 0.3 µM (ACVR1B; [5]): 99%; remaining binding at 0.3 µM (SGK3; [5]): 94%; remaining binding at 0.3 µM (EPHA8; [5]): 96%; remaining binding at 0.3 µM [2, 5]: 84%; remaining binding at 0.3 µM (PRKCI; [5]): 87%; remaining binding at 0.3 µM (BMPR2; [5]): 99%; remaining binding at 0.3 µM (CAMKK1; [5]): 92%; remaining binding at 0.3 µM (MAP4K5; [5]): 90%; remaining binding at 0.3 µM (FLT3(ITD); [5]): 85%; remaining binding at 0.3 µM (GSK3A; [5]): 74%; remaining binding at 0.3 µM (PCTK2; [5]): 97%

Question: For C=CC(=O)N1CCC[C@@H](n2nc(-c3ccc(Oc4ccccc4)cc3)c3c(N)ncnc32)C1 [Ibrutinib], which remaining binding at 0.3 µM (MERTK; [6]) is on record?
Answer: 70%

Question: And the remaining binding at 0.3 µM (NEK1; [6])?
Answer: 96%

Question: What about the remaining binding at 0.3 µM (FLT3(D835H); [6]) of the same molecule?
Answer: 25%

Question: What about the remaining binding at 0.3 µM (ERBB3; [6]) of the same molecule?
Answer: 1.2%
